Measured values: the supplement of paper PMC10307832

Assays:
Assay in all cases: relative viability (nuclei count vs DMSO), 5 days (fraction); higher = more cells survive
Bleomycin + Crizotinib = compound: CC1=C(N=C(N=C1N)[C@H](CC(=O)N)NC[C@@H](C(=O)N)N)C(=O)N[C@@H]([C@H](C2=CN=CN2)OC3C(C(C(C(O3)CO)O)O)OC4C(C(C(C(O4)CO)O)OC(=O)N)O)C(=O)N[C@H](C)[C@H]([C@H](C)C(=O)N[C@@H]([C@@H](C)O)C(=O)NCCC5=NC(=CS5)C6=NC(=CS6)C(=O)NCCC[S+](C)C)O [Bleomycin] + C[C@@H](Oc1cc(-c2cnn(C3CCNCC3)c2)cnc1N)c1c(Cl)ccc(F)c1Cl [Crizotinib] (partner 1 µM); settings: main component drawn
Outline: (§1)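 Relative viability divides the nuclei count in treated wells by that in vehicle wells. Lung cancer cell lines were seeded in 1536-well plates, dosed by pin tool the next day, and fixed and stained after 5 days in one step with final 0.05% Triton X-100, 1% formaldehyde and 1 ug/ml Hoechst. Dosing was a single drug or a fixed anchor-drug dose plus five library-drug doses (not always all listed) in √10 steps, and values are medians of duplicate plates imaged at 4×.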

Etoposide + Bortezomib = compound: COc1cc([C@@H]2c3cc4c(cc3[C@@H](O[C@@H]3O[C@@H]5CO[C@@H](C)O[C@H]5[C@H](O)[C@H]3O)[C@H]3COC(=O)[C@H]23)OCO4)cc(OC)c1O [Etoposide] + CC(C)C[C@H](NC(=O)[C@H](Cc1ccccc1)NC(=O)c1cnccn1)B(O)O [Bortezomib] (partner 0.002 µM)
Outline: as §1

Bleomycin + Palbociclib = compound: CC1=C(N=C(N=C1N)[C@H](CC(=O)N)NC[C@@H](C(=O)N)N)C(=O)N[C@@H]([C@H](C2=CN=CN2)OC3C(C(C(C(O3)CO)O)O)OC4C(C(C(C(O4)CO)O)OC(=O)N)O)C(=O)N[C@H](C)[C@H]([C@H](C)C(=O)N[C@@H]([C@@H](C)O)C(=O)NCCC5=NC(=CS5)C6=NC(=CS6)C(=O)NCCC[S+](C)C)O [Bleomycin] + CC(=O)c1c(C)c2cnc(Nc3ccc(N4CCNCC4)cn3)nc2n(C2CCCC2)c1=O [Palbociclib] (partner 0.5 µM); settings: main component drawn
Outline: as §1

Etoposide + Vorinostat = compound: COc1cc([C@@H]2c3cc4c(cc3[C@@H](O[C@@H]3O[C@@H]5CO[C@@H](C)O[C@H]5[C@H](O)[C@H]3O)[C@H]3COC(=O)[C@H]23)OCO4)cc(OC)c1O [Etoposide] + O=C(CCCCCCC(=O)Nc1ccccc1)NO [Vorinostat] (partner 1 µM)
Outline: as §1

Row | Cell Line | relative viability (Bleomycin + Crizotinib; first compound 0.01 µM) | relative viability (Bleomycin + Crizotinib; first compound 0.03162 µM) | relative viability (Bleomycin + Crizotinib; first compound 0.1 µM) | relative viability (Bleomycin + Crizotinib; first compound 0.3162 µM) | relative viability (Bleomycin + Crizotinib; first compound 1 µM) | relative viability (Etoposide + Bortezomib; first compound 0.01 µM) | relative viability (Etoposide + Bortezomib; first compound 0.03162 µM) | relative viability (Etoposide + Bortezomib; first compound 0.1 µM) | relative viability (Etoposide + Bortezomib; first compound 0.3162 µM) | relative viability (Etoposide + Bortezomib; first compound 1 µM) | relative viability (Bleomycin + Palbociclib; first compound 0.01 µM) | relative viability (Bleomycin + Palbociclib; first compound 0.03162 µM) | relative viability (Bleomycin + Palbociclib; first compound 0.1 µM) | relative viability (Bleomycin + Palbociclib; first compound 0.3162 µM) | relative viability (Bleomycin + Palbociclib; first compound 1 µM) | relative viability (Etoposide + Vorinostat; first compound 0.01 µM) | relative viability (Etoposide + Vorinostat; first compound 0.03162 µM) | relative viability (Etoposide + Vorinostat; first compound 0.1 µM) | relative viability (Etoposide + Vorinostat; first compound 0.3162 µM) | relative viability (Etoposide + Vorinostat; first compound 1 µM)
1 | NCI-H1299 | 0.896 | 0.943 | 0.715 | 0.402 | 0.331 | 1.03 | 0.999 | 1.11 | 0.957 | 0.821 |  |  |  |  |  |  |  |  |  | 
2 | NCI-H1395 |  |  |  |  |  |  |  |  |  |  | 0.518 | 0.549 | 0.499 | 0.341 | 0.342 | 0.659 | 0.905 | 0.509 | 0.54 | 0.502
3 | NCI-H1563 | 0.714 | 0.694 | 0.723 | 0.594 | 0.518 | 0.802 | 0.866 | 0.781 | 0.618 | 0.605 |  |  |  |  |  |  |  |  |  | 
4 | NCI-H1648 |  |  |  |  |  |  |  |  |  |  | 0.217 | 0.32 | 0.27 | 0.27 | 0.245 |  | 0.58 | 0.306 | 0.3 | 0.329
5 | NCI-H1703 | 0.751 | 0.655 | 0.676 | 0.322 | 0.195 | 0.433 | 0.519 | 0.294 | 0.22 | 0.198 |  |  |  |  |  |  |  |  |  | 
6 | NCI-H1792 | 0.886 | 0.971 | 0.675 | 0.312 | 0.258 | 0.899 | 0.878 | 0.819 | 0.897 | 0.581 | 0.613 | 0.624 | 0.592 | 0.482 | 0.362 |  |  |  |  | 
7 | NCI-H1793 |  |  |  |  |  |  |  |  |  |  | 0.316 | 0.302 | 0.313 | 0.216 | 0.19 |  | 0.934 | 0.353 | 0.427 | 0.151
8 | NCI-H1944 | 0.544 | 0.565 | 0.432 | 0.237 | 0.186 |  |  |  |  |  | 0.228 | 0.188 | 0.218 | 0.156 | 0.13 | 0.532 | 0.532 | 0.334 | 0.282 | 0.147
9 | NCI-H2170 | 0.996 | 1.19 | 1.12 | 0.662 | 0.624 |  |  |  |  |  | 0.328 | 0.342 | 0.307 | 0.274 | 0.259 | 0.782 | 0.846 |  | 0.755 | 0.438
10 | NCI-H2342 |  |  |  |  |  |  |  |  |  |  | 0.553 | 0.546 | 0.519 | 0.488 | 0.433 | 0.788 | 0.788 | 0.471 | 0.421 | 0.369
11 | SK-MES-1 | 0.83 | 0.86 | 0.753 | 0.309 | 0.213 |  |  |  |  |  | 0.313 | 0.306 | 0.329 | 0.254 | 0.204 | 1.11 | 1.2 | 0.873 | 0.806 | 0.351
12 | SW 900 |  |  |  |  |  |  |  |  |  |  | 0.502 | 0.503 | 0.355 | 0.214 | 0.222 | 0.413 | 0.468 | 0.408 | 0.295 | 0.167
